# From patent US4910191A, “19-substituted progesterone derivatives useful as 19-hydroxylase inhibitors” (Merrell Dow Pharmaceuticals Inc., priority 1988, dated 1990)
# Columns and labels:
# [1] = test system: weanling SHR rats; details: administered to weanling SHR rats; Melby et al., 1987; cited from earlier work
# [2] = target: adrenal 19-hydroxylase; test: in vitro radioenzymatic assay, inhibition of adrenal 19-hydroxylase (19-hydroxylation of radiolabeled deoxycorticosterone); assay type: biochemical, rat, hamster, bovine, primate, or human
# Protocol: The compounds of the present invention are useful as 19-hydroxylase inhibitors and antihypertensive agents. […] The test compounds are solubilized in buffer/solvent media at concentrations ranging from 1 nM to 50 μM, then added to assay tubes containing an adrenal mitochondrial suspension, i.e., rat, hamster, bovine, primate, or human, an NADPH-generating system, and radiolabeled deoxycorticosterone. The assay components are incubated for varying time intervals at 25°-37° C. and the reaction is quenched. The hydroxylated corticoids [i.e., 19--HO--DOC (19-hydroxydesoxycorticosterone), 18--HO--DOC(18-hydroxydeoxycorticosterone) and corticosterone] are extracted with organic solvent and isolated by standard chromatographic procedures.
# [3] = Funder et al., 1978; cited from earlier work
# [4] = test system: bad bladder epithelia; details: relative to aldosterone; Perrone et al., 1981; cited from earlier work
# [5] = times the potency of DOC; Kagawa et al., 1957; cited from earlier work
smiles,measurement,setting,value
"C#CC[C@]12CCC(=O)C=C1CC[C@@H]1[C@@H]2CC[C@]2(C)C(=O)CC[C@@H]12 [10-(2-propynyl)estr-4-ene-3,17-dione]",development of hypertension,[1],retards the development of hypertension
same,levels of urinary free 19-norDOC,[1],reduces the levels of urinary free 19-norDOC
"C#CC[C@]12CCC(=O)C=C1CC[C@@H]1[C@@H]2CC[C@]2(C)[C@@H](C(=O)CO)CC[C@@H]12 [21-hydroxy-10-(2-propynyl)-19-norpregn-4-ene-3,20-dione]",IC50,"[2]; adrenal mitochondrial suspension, NADPH-generating system, radiolabeled deoxycorticosterone, 25°-37° C., time-dependent, read-out: IC50 (time-dependent enzyme inhibition)",~50 nM
same,affinity for the 19-hydroxylase active site relative to the natural substrate (DOC),[2]; greater affinity than DOC,12 times
"C[C@]12CC[C@H]3[C@@H](CCC4=CC(=O)CC[C@@H]43)[C@@H]1CC[C@@H]2C(=O)CO [Example 19-norDOC, 19-nordeoxycorticosterone]",hypertensive activity compared to deoxycorticosterone (DOC),[3],much higher hypertensive activity
same,"stimulating Na^+ transport across bladder epithelia, potency vs aldosterone",[4],equipotent to aldosterone
same,"Na-retaining activity, potency relative to DOC",[5],two to five
